Consider one compound from article PMC10967458, “A FtsZ Inhibitor That Can Utilize Siderophore-Ferric Iron Uptake Transporter Systems for Activity against Gram-Negative Bacterial Pathogens” (Antibiotics, 2024).

The test concerns the target K. pneumoniae FtsZ (KpFtsZ) (Klebsiella pneumoniae, UniProt A0A0H3GRR0). The test can be described thus: fluorescence anisotropy titration of intrinsically fluorescent RUP4 ([…]) with purified KpFtsZ, […] °C, […] fit. The format is binding. In general terms: In fluorescence polarisation assays a small probe gives low polarisation when free and higher when bound to something large.

K. pneumoniae FtsZ (KpFtsZ), sequence (A0A0H3GRR0 entry or part of it): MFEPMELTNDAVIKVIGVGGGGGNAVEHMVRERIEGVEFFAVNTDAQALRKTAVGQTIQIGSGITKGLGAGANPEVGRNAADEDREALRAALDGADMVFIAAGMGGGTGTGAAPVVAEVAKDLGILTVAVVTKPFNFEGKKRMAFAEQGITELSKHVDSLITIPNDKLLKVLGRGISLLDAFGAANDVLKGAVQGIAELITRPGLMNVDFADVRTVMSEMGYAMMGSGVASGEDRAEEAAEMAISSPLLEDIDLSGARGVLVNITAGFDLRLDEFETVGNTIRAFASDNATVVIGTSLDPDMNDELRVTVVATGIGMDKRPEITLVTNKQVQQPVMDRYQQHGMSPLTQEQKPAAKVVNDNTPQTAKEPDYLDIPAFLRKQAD

Regarding `NC(=O)c1c(F)ccc(OC(CCNC(=O)c2ccc(O)c(O)c2Cl)c2nc(-c3ccc(C(F)(F)F)cc3)c(Br)o2)c1F` (stereo not shown) [RUP4], binding was characterised by a dissociation constant (Kd) of 49 ± 5 µM.
